“And” between values parts separate entries of the source, which are not always exact repeats. Equal values may be shown once. Inconclusive results and toxic doses are left out. No stated cut-off is given here; in the data, active means T/C of 150% or more; inactive means T/C below 125%.
Tested on: L1210 leukemia ip in BDF1 mice, survival T/C
Test: NCI In Vivo Anticancer Drug Screen. Data for tumor model L1210 Leukemia (intraperitoneal) in B6D2F1 (BDF1) mice
Conditions: higher = longer survival
How it was run: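 Ratio derived from survival: compound-dosed mice over vehicle-dosed mice, all bearing a transplantable tumor.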

[1] = endpoint: mean survival time, dose: 100.0 mg/kg/injection, schedule: Q01DX009 (ip), vehicle: Klucel (hydroxypropylcellulose) (HPC)
[2] = endpoint: mean survival time, dose: 100.0 mg/kg/injection, schedule: Q04DX003 (ip), vehicle: Klucel (hydroxypropylcellulose) (HPC)
[3] = endpoint: mean survival time, dose: 200.0 mg/kg/injection, schedule: Q01DX009 (ip), vehicle: Klucel (hydroxypropylcellulose) (HPC)
[4] = endpoint: mean survival time, dose: 200.0 mg/kg/injection, schedule: Q04DX003 (ip), vehicle: Klucel (hydroxypropylcellulose) (HPC)
[5] = endpoint: mean survival time, dose: 400.0 mg/kg/injection, schedule: Q04DX003 (ip), vehicle: Klucel (hydroxypropylcellulose) (HPC)

Measured: T/C

CSc1ncnc2nc[nH]c12
inactive: endpoint: mean survival time, dose: 1.5 mg/kg/injection, schedule: Q01DX Z (ip), vehicle: saline 95 % of control | endpoint: mean survival time, dose: 3.0 mg/kg/injection, schedule: Q01DX Z (ip), vehicle: saline 95 % of control | endpoint: mean survival time, dose: 6.0 mg/kg/injection, schedule: Q01DX Z (ip), vehicle: saline 103 % of control | endpoint: mean survival time, dose: 12.0 mg/kg/injection, schedule: Q01DX Z (ip), vehicle: saline 95 % of control | endpoint: mean survival time, dose: 12.5 mg/kg/injection, schedule: Q#A X Z (ip), vehicle: saline 108 % of control | endpoint: mean survival time, dose: 25.0 mg/kg/injection, schedule: Q01DX006 (iv), vehicle: saline 103 % of control | endpoint: mean survival time, dose: 25.0 mg/kg/injection, schedule: Q01DX009 (ip), vehicle: saline 97 % of control | endpoint: mean survival time, dose: 25.0 mg/kg/injection, schedule: Q01DX010 (ip), vehicle: saline 92 % of control | endpoint: mean survival time, dose: 25.0 mg/kg/injection, schedule: Q01DX Z (im), vehicle: methylcellulose (MC) 94 % of control | endpoint: mean survival time, dose: 25.0 mg/kg/injection, schedule: Q01DX Z (ip), vehicle: saline 101 % of control | endpoint: mean survival time, dose: 25.0 mg/kg/injection, schedule: Q01DX Z (sc), vehicle: methylcellulose (MC) 117 % of control | endpoint: mean survival time, dose: 25.0 mg/kg/injection, schedule: Q#A X Z (ip), vehicle: saline 103 % of control | endpoint: mean survival time, dose: 30.0 mg/kg/injection, schedule: Q01DX015 (ip), vehicle: carboxymethylcellulose (CMC) 114 % of control | endpoint: mean survival time, dose: 45.0 mg/kg/injection, schedule: Q01DX015 (ip), vehicle: carboxymethylcellulose (CMC) 104 % of control | endpoint: mean survival time, dose: 50.0 mg/kg/injection, schedule: Q01DX006 (iv), vehicle: saline 100 % of control | endpoint: mean survival time, dose: 50.0 mg/kg/injection, schedule: Q01DX009 (ip), vehicle: saline 102 % of control and 104 % of control | endpoint: mean survival time, dose: 50.0 mg/kg/injection, schedule: Q01DX010 (ip), vehicle: saline 89 % of control | endpoint: mean survival time, dose: 50.0 mg/kg/injection, schedule: Q01DX Z (im), vehicle: methylcellulose (MC) 107 % of control | endpoint: mean survival time, dose: 50.0 mg/kg/injection, schedule: Q01DX Z (ip), vehicle: saline 105 % of control | endpoint: mean survival time, dose: 50.0 mg/kg/injection, schedule: Q01DX Z (sc), vehicle: methylcellulose (MC) 96 % of control | endpoint: mean survival time, dose: 50.0 mg/kg/injection, schedule: Q#A X Z (ip), vehicle: saline 112 % of control | endpoint: mean survival time, dose: 60.0 mg/kg/injection, schedule: Q01DX015 (ip), vehicle: carboxymethylcellulose (CMC) 114 % of control | endpoint: mean survival time, dose: 75.0 mg/kg/injection, schedule: Q01DX015 (ip), vehicle: carboxymethylcellulose (CMC) 108 % of control | endpoint: mean survival time, dose: 75.0 mg/kg/injection, schedule: Q03DX Z (ip), vehicle: saline 100 % of control | endpoint: mean survival time, dose: 90.0 mg/kg/injection, schedule: Q01DX015 (ip), vehicle: carboxymethylcellulose (CMC) 109 % of control | endpoint: mean survival time, dose: 100.0 mg/kg/injection, schedule: Q01DX006 (iv), vehicle: saline 108 % of control | endpoint: mean survival time, dose: 100.0 mg/kg/injection, schedule: Q01DX009 (ip), vehicle: saline 102 % of control and 103 % of control | endpoint: mean survival time, dose: 100.0 mg/kg/injection, schedule: Q01DX010 (ip), vehicle: saline 95 % of control and 87 % of control | endpoint: mean survival time, dose: 100.0 mg/kg/injection, schedule: Q01DX Z (im), vehicle: methylcellulose (MC) 89 % of control | endpoint: mean survival time, dose: 100.0 mg/kg/injection, schedule: Q01DX Z (ip), vehicle: saline 111 % of control | endpoint: mean survival time, dose: 100.0 mg/kg/injection, schedule: Q01DX Z (sc), vehicle: methylcellulose (MC) 113 % of control | endpoint: mean survival time, dose: 120.0 mg/kg/injection, schedule: Q01DX001 (ip), vehicle: carboxymethylcellulose (CMC) 95 % of control and 100 % of control | endpoint: mean survival time, dose: 125.0 mg/kg/injection, schedule: Q01DX001 (ip), vehicle: methylcellulose (MC) 105 % of control and 108 % of control | endpoint: mean survival time, dose: 150.0 mg/kg/injection, schedule: Q03DX Z (ip), vehicle: saline 101 % of control | endpoint: mean survival time, dose: 180.0 mg/kg/injection, schedule: Q01DX001 (ip), vehicle: carboxymethylcellulose (CMC) 102 % of control and 106 % of control | endpoint: mean survival time, dose: 200.0 mg/kg/injection, schedule: Q01DX006 (iv), vehicle: saline 97 % of control | endpoint: mean survival time, dose: 200.0 mg/kg/injection, schedule: Q01DX009 (ip), vehicle: saline 97 % of control and 100 % of control | endpoint: mean survival time, dose: 200.0 mg/kg/injection, schedule: Q01DX010 (ip), vehicle: saline 105 % of control | endpoint: mean survival time, dose: 200.0 mg/kg/injection, schedule: Q01DX Z (im), vehicle: methylcellulose (MC) 102 % of control | endpoint: mean survival time, dose: 200.0 mg/kg/injection, schedule: Q01DX Z (ip), vehicle: saline 105 % of control | endpoint: mean survival time, dose: 200.0 mg/kg/injection, schedule: Q01DX Z (sc), vehicle: methylcellulose (MC) 112 % of control | endpoint: mean survival time, dose: 250.0 mg/kg/injection, schedule: Q01DX001 (ip), vehicle: methylcellulose (MC) 106 % of control and 108 % of control | endpoint: mean survival time, dose: 270.0 mg/kg/injection, schedule: Q01DX001 (ip), vehicle: carboxymethylcellulose (CMC) 103 % of control and 117 % of control | endpoint: mean survival time, dose: 300.0 mg/kg/injection, schedule: Q03DX Z (ip), vehicle: saline 100 % of control | endpoint: mean survival time, dose: 500.0 mg/kg/injection, schedule: Q01DX001 (ip), vehicle: methylcellulose (MC) 116 % of control | endpoint: mean survival time, dose: 1000.0 mg/kg/injection, schedule: Q01DX001 (ip), vehicle: methylcellulose (MC) 112 % of control | endpoint: median survival time, dose: 25.0 mg/kg/injection, schedule: Q01DX009 (ip), vehicle: saline 100 % of control | endpoint: median survival time, dose: 50.0 mg/kg/injection, schedule: Q01DX009 (ip), vehicle: saline 95 % of control and 106 % of control | endpoint: median survival time, dose: 100.0 mg/kg/injection, schedule: Q01DX009 (ip), vehicle: saline 100 % of control and 106 % of control | endpoint: median survival time, dose: 200.0 mg/kg/injection, schedule: Q01DX009 (ip), vehicle: saline 100 % of control and 115 % of control

CCC(CO)Nc1nc2ccccc2c2ccccc12 (stereo not given)
inactive: [1] 102 % of control | [2] 98 % of control | [3] 97 % of control | [4] 89 % of control | [5] 88 % of control

CN(C)CC1CCC(CN(C)C)C1=O (stereo not given)
inactive: endpoint: mean survival time, dose: 9.38 mg/kg/injection, schedule: Q01DX001 (ip), vehicle: other 106 % of control | endpoint: mean survival time, dose: 9.38 mg/kg/injection, schedule: Q01DX001 (ip), vehicle: saline 104 % of control | endpoint: mean survival time, dose: 18.75 mg/kg/injection, schedule: Q01DX001 (ip), vehicle: other 101 % of control | endpoint: mean survival time, dose: 18.75 mg/kg/injection, schedule: Q01DX001 (ip), vehicle: saline 103 % of control | endpoint: mean survival time, dose: 37.5 mg/kg/injection, schedule: Q01DX001 (ip), vehicle: other 115 % of control

COc1ccc(N=NN(C)C(C)=O)cc1
inactive: endpoint: mean survival time, dose: 50.0 mg/kg/injection, schedule: Q01DX009 (ip), vehicle: Klucel (hydroxypropylcellulose) (HPC) 102 % of control | endpoint: mean survival time, dose: 75.0 mg/kg/injection, schedule: Q01DX001 (ip), vehicle: Klucel (hydroxypropylcellulose) (HPC) 101 % of control | [1] 103 % of control | endpoint: mean survival time, dose: 150.0 mg/kg/injection, schedule: Q01DX001 (ip), vehicle: Klucel (hydroxypropylcellulose) (HPC) 93 % of control | [3] 100 % of control | endpoint: mean survival time, dose: 300.0 mg/kg/injection, schedule: Q01DX001 (ip), vehicle: Klucel (hydroxypropylcellulose) (HPC) 96 % of control

CC12C=CC3(CCC4C(C)(C)C(=O)C(O)=CC4(C)C3CC1=O)C2 (stereo not given)
inactive: [1] 103 % of control | [2] 95 % of control | [3] 94 % of control | [4] 98 % of control | endpoint: mean survival time, dose: 400.0 mg/kg/injection, schedule: Q01DX009 (ip), vehicle: Klucel (hydroxypropylcellulose) (HPC) 94 % of control | [5] 98 % of control

COc1ccc(OC)c(NC(=O)c2c(Br)c(Br)c(Br)c(Br)c2C(=O)O)c1
inactive: [1] 109 % of control | [3] 97 % of control

CC1(C)OCC(CO)([N+](=O)[O-])CO1
inactive: endpoint: mean survival time, dose: 12.5 mg/kg/injection, schedule: Q04DX003 (ip), vehicle: saline with Tween-80 92 % of control | endpoint: mean survival time, dose: 25.0 mg/kg/injection, schedule: Q01DX009 (ip), vehicle: saline with Tween-80 108 % of control | endpoint: mean survival time, dose: 25.0 mg/kg/injection, schedule: Q04DX003 (ip), vehicle: saline with Tween-80 93 % of control | endpoint: mean survival time, dose: 50.0 mg/kg/injection, schedule: Q01DX009 (ip), vehicle: saline with Tween-80 108 % of control | endpoint: mean survival time, dose: 50.0 mg/kg/injection, schedule: Q04DX003 (ip), vehicle: saline with Tween-80 95 % of control | endpoint: mean survival time, dose: 100.0 mg/kg/injection, schedule: Q01DX009 (ip), vehicle: saline with Tween-80 108 % of control | endpoint: mean survival time, dose: 100.0 mg/kg/injection, schedule: Q04DX003 (ip), vehicle: saline with Tween-80 100 % of control | endpoint: mean survival time, dose: 150.0 mg/kg/injection, schedule: Q04DX003 (ip), vehicle: saline with Tween-80 94 % of control

COC(=O)CC(c1cccc2ccccc12)c1cccc2ccc3ccccc3c12 (stereo not given)
inactive: endpoint: mean survival time, dose: 100.0 mg/kg/injection, schedule: Q04DX003 (ip), vehicle: DMSO 92 % of control | endpoint: mean survival time, dose: 200.0 mg/kg/injection, schedule: Q04DX003 (ip), vehicle: DMSO 94 % of control | endpoint: mean survival time, dose: 400.0 mg/kg/injection, schedule: Q04DX003 (ip), vehicle: DMSO 89 % of control

Source: PubChem BioAssay AID248 (DTP/NCI, 2004)
